The text below walks through data of patent publication US20260216294A1, “BETA 2-ADRENERGIC RECEPTOR AGONISTS FOR TREATMENT OR PREVENTION OF MUSCLE WASTING” (ATROGI AB, priority 2023, published 2026).

Experiment [1] concerns L6-myotubes. The experiment is described as follows: Measurement of intracellular cAMP levels in differentiated L6-myotubes (Biological Example 3). The class given is cell-based. The note with it: 0.25 h. In short, it runs like this:
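Serum-starved differentiated L6 myotubes stimulated 15 min with test compound at 1×10^−5 M final (isoprenaline as reference) in HBSS with 1% BSA, 5 mM HEPES, 1 mM IBMX, pH 7.4. Cells EtOH-extracted, lysed, and intracellular cAMP measured by AlphaScreen.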
A general note: Changes in cAMP serve as a functional read-out for many G protein-coupled receptors.

Experiment [2] deals with L6-myotubes. Kind of experiment: Glucose uptake in differentiated L6-myotubes (Biological Example 2). The note with it: read-out: Biological example 2 (GU). The class given is cell-based. In outline: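 Differentiated L6 myotubes were serum-starved overnight in 0.5% fatty-acid-free BSA and then stimulated with compound or isoprenaline at 1×10^−5 M final. After 1 h 40 min cells were washed and re-dosed in glucose-free medium. Twenty minutes later, uptake of 50 nM ^3H-2-deoxyglucose over 10 min was measured by scintillation counting of NaOH lysates.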

The mark [3] stands for this setting: intracellular cAMP in differentiated L6-myotubes, compound at 10 μM, activity relative to isoproterenol at 10 μM.
Where [4] appears, read: glucose uptake in differentiated L6-myotubes, compound at 10 μM, activity relative to isoproterenol at 10 μM.
[5] abbreviates: intracellular cAMP, compound at 10 μM relative to isoproterenol at 10 μM.
Where [6] appears, read: glucose uptake, compound at 10 μM relative to isoproterenol at 10 μM.

As for `CC1(C)CC[C@H]([C@@H](O)c2cccc(N)c2F)N1` [Compound 226, (S)-[(R)-5,5-dimethyl-2-pyrrolidinyl](3-amino-2-fluorophenyl)methanol], the Emax at 10 µM with L6-myotubes [1] (setting [3]) was less than 25%; with L6-myotubes [2] (setting [4]), 25 to 50%.
Regarding `CCC[C@@H]1CCC[C@H]([C@H](O)c2cccc(O)c2)N1` [Compound 45], the Emax at 10 µM with L6-myotubes [1] (setting [5]) is less than 25%; in the experiment with L6-myotubes [2] (setting [6]), greater than 75%.
On the same counts, the results for `CCC[C@@H]1CCC[C@@H]([C@H](O)c2cccc(O)c2)N1` [Compound 136] are less than 25% and greater than 75%.
The like results for `CCC[C@H]1CCC[C@H]([C@H](O)c2ccccc2F)N1` [Compound 93, (R)-[(2R,6S)-6-propyl-2-piperidyl](o-fluorophenyl)methanol] were, in that order, less than 25% and 25 to 50%.
As to `CC(=O)N[C@H]1CC[C@@H](C[C@@H]2CC[C@H]([C@H](O)c3cccc(F)c3)N2)CC1` [Compound 484], the Emax at 10 µM in the experiment with L6-myotubes [1] (setting [3]) is less than 25%; in the experiment with L6-myotubes [2] (setting [4]), 50 to 75%.
The like results for `CS(=O)(=O)N(Cc1ccccc1)CC12CCC([C@H](O)c3cccc(F)c3)(CC1)N2` [Compound 537, (R)-(4-{[(benzyl)-N-mesylamino]methyl}-7-azabicyclo[[2.2.1]]hept-1-yl)(m-fluorophenyl)methanol] were, in that order, 25 to 50% and 50 to 75%.
On to `O[C@@H](CNC[C@H]1CC[C@H](O)CC1)c1cncc(F)c1` [Compound 274, (R)-1-(5-fluoro-3-pyridyl)-2-({[(1r,4R)-4-hydroxycyclohexyl]methyl}amino)-1-ethanol], for which the Emax at 10 µM with L6-myotubes [1] (setting [3]) and in the experiment on L6-myotubes [2] (setting [4]) was less than 25% each time.
Consider `CC12CCC([C@@H](O)c3ccccc3Cl)(CC1)N2` [Compound 194, (S)-(o-chlorophenyl)(4-methyl-7-azabicyclo[[2.2.1]]hept-1-yl)methanol], for which the values for the Emax at 10 µM in the experiment on L6-myotubes [1] (setting [5]) and in the experiment on L6-myotubes [2] (setting [6]) were less than 25% and greater than 75%, respectively.
Turning to `O[C@H](c1cncc(F)c1)C12CCC(COCc3ccc(F)cc3)(CC1)N2` [Compound 443, (R)-(4-{[(p-fluorophenyl)methoxy]methyl}-7-azabicyclo[[2.2.1]]hept-1-yl)(5-fluoro-3-pyridyl)methanol], the Emax at 10 µM was 25 to 50% with L6-myotubes [1] (setting [3]) and greater than 75% with L6-myotubes [2] (setting [4]).
On the same counts, the results for `CCOC(=O)CO[C@H]1CC[C@H](C(C)(C)NC[C@H](O)c2cncc(F)c2)CC1` [Compound 409, ethyl[[(1R,4r)-4-{1-[(R)-2-(5-fluoro-3-pyridyl)-2-hydroxyethylamino]-1-methylethyl}cyclohexyloxy]]acetate] are less than 25% and greater than 75%.
On the same counts, the results for `CC(C)(C[C@H]1CC[C@@H](S(N)(=O)=O)CC1)NC[C@H](O)c1cccc(F)c1` [Compound 517, (1S,4s)-4-{2-[(R)-2-(m-fluorophenyl)-2-hydroxyethylamino]-2-methylpropyl} cyclohexanesulfonamide] are less than 25% and 25 to 50%.
Turning to `CCC[C@@H]1CCC[C@@H]([C@@H](O)c2cccc(Cl)c2)N1` [Compound 114], the Emax at 10 µM with L6-myotubes [1] (setting [5]) was less than 25%; in the experiment on L6-myotubes [2] (setting [6]), 25 to 50%.
For the molecule `CC1(C)C[C@H]([C@@H](O)c2cccc(F)c2)N1` [Compound 201], the Emax at 10 µM with L6-myotubes [1] (setting [3]) and in the experiment on L6-myotubes [2] (setting [4]) was less than 25% throughout.
`CS(=O)(=O)N(Cc1ccccc1)c1cccc(CC23CCC([C@H](O)c4cccc(F)c4)(CC2)N3)c1` [Compound 513]: the Emax at 10 µM is less than 25% in the experiment on L6-myotubes [1] (setting [3]) and 25 to 50% with L6-myotubes [2] (setting [4]).
As for `CO[C@H]1CC[C@@H](CC(C)(C)NC[C@H](O)c2cncc(F)c2)CC1` [Compound 248, (R)-2-{1,1-dimethyl-2-[(1s,4S)-4-methoxycyclohexyl]ethylamino}-1-(5-fluoro-3-pyridyl)-1-ethanol], the Emax at 10 µM is less than 25% in the experiment on L6-myotubes [1] (setting [3]) and greater than 75% with L6-myotubes [2] (setting [4]).
Turning to `CS(=O)(=O)Nc1ccc(CC23CCC([C@H](O)c4cccc(F)c4)(CC2)N3)cc1` [Compound 475, (R)-(m-fluorophenyl)(4-{[p-(mesylamino)phenyl]methyl}-7-azabicyclo[[2.2.1]]hept-1-yl)methanol], the Emax at 10 µM was less than 25% in the experiment with L6-myotubes [1] (setting [3]) and 50 to 75% in the experiment on L6-myotubes [2] (setting [4]).
The like results for `CO[C@H]1CC[C@@H](CC(C)(C)NC[C@H](O)c2cccc(F)c2)CC1` [Compound 247, (R)-2-{1,1-dimethyl-2-[(1s,4S)-4-methoxycyclohexyl]ethylamino}-1-(m-fluorophenyl)-1-ethanol] were, in that order, less than 25% and greater than 75%.
The like results for `CC(=O)N[C@H]1CC[C@H](CCC(C)(C)NC[C@H](O)c2cncc(F)c2)CC1` [Compound 361, N-[(1R,4r)-4-{3-[(R)-2-(5-fluoro-3-pyridyl)-2-hydroxyethylamino]-3-methylbutyl}cyclohexyl] acetamide] were, in that order, less than 25% and greater than 75%.
On the same counts, the results for `CC(C)(C[C@H]1CC[C@H](NS(C)(=O)=O)CC1)NC[C@H](O)c1cccc(F)c1` [Compound 382] are 25 to 50% and greater than 75%.
Turning to `CCCCNC[C@H](O)c1csc(N)n1` [Compound 71, (S)-1-(2-amino-1,3-thiazol-4-yl)-2-(butylamino)-1-ethanol], the values for the Emax at 10 µM in the experiment with L6-myotubes [1] (setting [5]) and in the experiment on L6-myotubes [2] (setting [6]) were less than 25% and 25 to 50%, respectively.
On the same counts, the results for `CCC[C@H]1CCC[C@H]([C@@H](O)c2cccc(O)c2)N1` [Compound 155] are less than 25% and less than 25%.
As for `CC(C)(C[C@H]1CC[C@@H](N)CC1)NC[C@@H](O)c1cccc(C#N)n1` [Compound 416], the results for the Emax at 10 µM with L6-myotubes [1] (setting [3]) and in the experiment on L6-myotubes [2] (setting [4]) were less than 25% and 50 to 75%, respectively.
On the same counts, the results for `CC(C)(C[C@H]1CC[C@H](O)CC1)NC[C@H](O)c1cncc(F)c1` [Compound 299, (R)-2-{1,1-dimethyl-2-[(1r,4R)-4-hydroxycyclohexyl]ethylamino}-1-(5-fluoro-3-pyridyl)-1-ethanol] are less than 25% and 50 to 75%.
The like results for `O[C@@H](c1cncc(F)c1)C12CCC(COCc3ccc(F)cc3)(CC1)N2` [Compound 442, (S)-(4-{[(p-fluorophenyl)methoxy]methyl}-7-azabicyclo[[2.2.1]]hept-1-yl)(5-fluoro-3-pyridyl)methanol] were, in that order, less than 25% and 25 to 50%.
On the same counts, the results for `O[C@@H](CNCCC[C@H]1CC[C@H](O)CC1)c1cncc(F)c1` [Compound 305, (R)-1-(5-fluoro-3-pyridyl)-2-{3-[(1r,4S)-4-hydroxycyclohexyl]propylamino}-1-ethanol] are less than 25% and 25 to 50%.
For `COc1ccc(CC23CCC([C@@H](O)c4cccc(F)c4)(CC2)N3)cc1` [Compound 400, (S)-(m-fluorophenyl){4-[(p-methoxyphenyl)methyl]-7-azabicyclo[[2.2.1]]hept-1-yl}methanol], the Emax at 10 µM with L6-myotubes [1] (setting [3]) was less than 25%; with L6-myotubes [2] (setting [4]), 50 to 75%.
On the same counts, the results for `CC1(C)C[C@@H]([C@@H](O)c2cncc(F)c2)N1` [Compound 215] are less than 25% and 25 to 50%.
`CCC[C@H]1CCC[C@@H]([C@H](O)c2cccc(Cl)c2)N1` [Compound 123]: the Emax at 10 µM in the experiment with L6-myotubes [1] (setting [5]) is less than 25%; in the experiment with L6-myotubes [2] (setting [6]) it was 25 to 50%.
Consider `CC(=O)N[C@H]1CC[C@H](CC(C)(C)NC[C@H](O)c2cncc(F)c2)CC1` [Compound 357], for which the Emax at 10 µM in the experiment with L6-myotubes [1] (setting [3]) was less than 25%; in the experiment on L6-myotubes [2] (setting [4]), greater than 75%.
For `CC(=O)N[C@H]1CC[C@H](CC(C)(C)NC[C@@H](O)c2cccc(C#N)n2)CC1` [Compound 427], the Emax at 10 µM with L6-myotubes [1] (setting [3]) and in the experiment on L6-myotubes [2] (setting [4]) was less than 25% each time.
Turning to `CC(C)(C)NC[C@H](O)c1cncc(Cl)c1` [Compound 138, (R)-2-(tert-butylamino)-1-(5-chloro-3-pyridyl)-1-ethanol], the Emax at 10 µM in the experiment with L6-myotubes [1] (setting [5]) and in the experiment with L6-myotubes [2] (setting [6]) was greater than 75% in each case.
For `CC(=O)N[C@H]1CC[C@@H](CC(C)(C)NC[C@H](O)c2cccc(F)c2)CC1` [Compound 452], the Emax at 10 µM is less than 25% with L6-myotubes [1] (setting [3]) and greater than 75% in the experiment with L6-myotubes [2] (setting [4]).
Regarding `CCCCNCC(O)c1cc(Cl)c(N)c(C(F)(F)F)c1` (centres unmarked) [Compound 32, 1-[4-amino-3-chloro-5-(trifluoromethyl)phenyl] -2-(butylamino)-1-ethanol], the Emax at 10 µM in the experiment with L6-myotubes [1] (setting [5]) is 25 to 50%; with L6-myotubes [2] (setting [6]) it was greater than 75%.
The like results for `CCCC(C)NCC(O)c1ccc(O)cc1` (centres unmarked) [Compound 8, 1-(p-hydroxyphenyl)-2-(1-methylbutylamino)-1-ethanol] were, in that order, 25 to 50% and 50 to 75%.
Take `O[C@@H](CNCC[C@H]1CC[C@H](OCc2ccccc2)CC1)c1cccc(F)c1` [Compound 288, (R)-1-(m-fluorophenyl)-2-{2-[(1r,4R)-4-(benzyloxy)cyclohexyl]ethylamino}-1-ethanol]: the Emax at 10 µM is less than 25% with L6-myotubes [1] (setting [3]) and 25 to 50% in the experiment with L6-myotubes [2] (setting [4]).
`CC(C)(C[C@H]1CC[C@@H](C(=O)O)CC1)NC[C@H](O)c1cncc(F)c1` [Compound 324, (1S,4s)-4-{2-[(R)-2-(5-fluoro-3-pyridyl)-2-hydroxyethylamino]-2-methylpropyl} cyclohexanecarboxylic acid]: the Emax at 10 µM is less than 25% in the experiment with L6-myotubes [1] (setting [3]) and 25 to 50% with L6-myotubes [2] (setting [4]).
Consider `CC12CCC([C@@H](O)c3cccc(F)c3)(CC1)N2` [Compound 178, (S)-(m-fluorophenyl)(4-methyl-7-azabicyclo[[2.2.1]]hept-1-yl)methanol], for which the Emax at 10 µM is less than 25% in the experiment on L6-myotubes [1] (setting [5]) and 25 to 50% in the experiment with L6-myotubes [2] (setting [6]).
